Test results from ChEMBL document CHEMBL5385959, “Trifluoroacetic acid-mediated synthesis of xanthene constructs and their extensive anti-tuberculosis evaluation” (RSC Med Chem, 2024).
Converted amounts (≈) assume the structure as drawn. The source made the active and inactive calls. No cut-off for these calls is given here.

Tests used:
[1] = test system: Mycobacterium tuberculosis; experiment: Antibacterial activity against Mycobacterium tuberculosis H37Rv assessed as reduction in bacterial growth incubated for 14 days by CLSI protocol based method; type: functional; settings: 336 h, time 14 day
Escherichia coli = experiment: Antibacterial activity against Escherichia coli assessed as reduction in bacterial growth incubated for 24 hrs by broth dilution method; type: functional
Pseudomonas aeruginosa = experiment: Antibacterial activity against Pseudomonas aeruginosa assessed as reduction in bacterial growth incubated for 24 hrs by broth dilution method; type: functional
Bacillus subtilis = experiment: Antibacterial activity against Bacillus subtilis assessed as reduction in bacterial growth incubated for 24 hrs by broth dilution method; type: functional
[2] = test system: Mycobacterium tuberculosis; experiment: Antibacterial activity against Mycobacterium tuberculosis H37Ra assessed as reduction in bacterial growth incubated for 14 days by CLSI protocol based method; type: functional; settings: 336 h, time 14 day
[3] = test system: Mycobacterium tuberculosis; experiment: Bactericidal activity Mycobacterium tuberculosis H37Rv at 4 times MIC incubated for 7 days by time kill assay; type: functional, organism-based; settings: time 7.0 day
[4] = test system: Mycobacterium tuberculosis; experiment: Synergistic antibacterial activity against Mycobacterium tuberculosis H37Rv assessed as reduction in microbial growth in presence of ethambutol by broth microdilution method; type: functional
A549 = experiment: Cytotoxicity against human A549 cells assessed as reduction in cell viability at 200 uM incubated for 48 hrs by MTT assay; type: functional
[5] = test system: Mycobacterium tuberculosis; experiment: Synergistic antibacterial activity against Mycobacterium tuberculosis H37Rv assessed as reduction in microbial growth in presence of isoniazid by broth microdilution method; type: functional
[6] = test system: Mycobacterium tuberculosis; experiment: Synergistic antibacterial activity against Mycobacterium tuberculosis H37Rv assessed as log reduction in CFU measured for 2 days in presence of isoniazid by time kill assay; type: functional; settings: time 2 day
[7] = test system: Mycobacterium tuberculosis; experiment: Bactericidal activity Mycobacterium tuberculosis H37Rv incubated for 15 days by time kill assay; type: functional, organism-based; settings: time 15.0 day
[8] = test system: Mycobacterium tuberculosis; experiment: Bactericidal activity Mycobacterium tuberculosis assessed as reduction in bacterial growth incubated for 28 days by broth microdilution method; type: functional; settings: 672 h, time 28 day
[9] = test system: Mycobacterium tuberculosis; experiment: Synergistic antibacterial activity against Mycobacterium tuberculosis H37Rv assessed as ethambutol MIC by broth microdilution method; type: functional
[10] = test system: Mycobacterium tuberculosis; experiment: Synergistic antibacterial activity against Mycobacterium tuberculosis H37Rv assessed as isoniazid MIC by broth microdilution method; type: functional
[11] = Cytotoxicity against mouse RAW 264 cells assessed as reduction in cell viability at 150 uM incubated for 48 hrs by MTT assay; type: functional
[12] = test system: Mycobacterium tuberculosis; experiment: Bactericidal activity Mycobacterium tuberculosis H37Rv assessed as reduction in bacterial growth incubated for 2 days by time kill assay; type: functional; settings: 48 h, time 2 day
[13] = test system: Mycobacterium tuberculosis; experiment: Bactericidal activity Mycobacterium tuberculosis H37Rv incubated for 2 days by time kill assay; type: functional, organism-based; settings: time 2.0 day
[14] = test system: Mycobacterium tuberculosis; experiment: Bactericidal activity Mycobacterium tuberculosis H37Rv assessed as log reduction in CFU at 2 times MIC incubated for 2 days by time kill assay; type: functional; settings: time 2 day
[15] = test system: Mycobacterium tuberculosis; experiment: Synergistic antibacterial activity against Mycobacterium tuberculosis H37Rv assessed as rifampicin MIC by broth microdilution method; type: functional
[16] = test system: Mycobacterium tuberculosis; experiment: Synergistic antibacterial activity against Mycobacterium tuberculosis H37Rv assessed as reduction in microbial growth in presence of rifampicin by broth microdilution method; type: functional
[17] = test system: Mycobacterium tuberculosis; experiment: Antibacterial activity against Mycobacterium tuberculosis H37Rv assessed as reduction in bacterial growth by broth microdilution method; type: functional
[18] = test system: Mycobacterium tuberculosis; experiment: Antibacterial activity against GFP-tagged Mycobacterium tuberculosis H37Rv assessed as reduction in GFP expression at half times MIC incubated for 7 days by confocal microscopic analysis; type: functional, organism-based; settings: time 7.0 day
[19] = test system: Mycobacterium tuberculosis; experiment: Synergistic antibacterial activity against Mycobacterium tuberculosis H37Rv assessed as log reduction in CFU measured for 4 days in presence of isoniazid by time kill assay; type: functional; settings: time 4 day
HEK293 = experiment: Cytotoxicity against HEK293 cells assessed as reduction in cell viability at 100 uM incubated for 48 hrs by MTT assay; type: toxicity, cell-based; settings: human, hek293, 48 h
[20] = test system: Mycobacterium tuberculosis; experiment: Bactericidal activity Mycobacterium tuberculosis H37Rv assessed as log reduction in CFU at 2 times MIC incubated for 5 to 10 days by time kill assay; type: functional, organism-based; settings: time 5-10 day
[21] = test system: Mycobacterium tuberculosis; experiment: Bactericidal activity Mycobacterium tuberculosis H37Rv assessed as log reduction in CFU incubated for 2 days by time kill assay; type: functional; settings: time 2 day
[22] = test system: Mycobacterium tuberculosis; experiment: Bactericidal activity Mycobacterium tuberculosis H37Rv by time kill assay; type: functional, organism-based; settings: time 16.0 day
[23] = test system: Mycobacterium tuberculosis; experiment: Bactericidal activity Mycobacterium tuberculosis H37Rv assessed as log reduction in CFU at 16 times MIC incubated for 8 days by time kill assay; type: functional; settings: time 8 day
[24] = test system: Mycobacterium tuberculosis; experiment: Bactericidal activity Mycobacterium tuberculosis H37Rv assessed as log reduction in CFU at 16 times MIC incubated for 2 to 6 days by time kill assay; type: functional; settings: time 2-6 day

SMILES	MIC [1] [µg/mL]	MIC (Escherichia coli) [µg/mL]	MIC (Pseudomonas aeruginosa) [µg/mL]	MIC (Bacillus subtilis) [µg/mL]	MIC [2] [µg/mL]	other results
CC1(C)CC(=O)C2=C(C1)OC(N)=C(C#N)C2c1cccc(O)c1 (stereo not given)	> 64	–	–	–	–	–
N#CC1=C(N)OC2=C(C(=O)CCC2)C1c1ccccc1 (stereo not given)	> 64	–	–	–	–	–
Cc1cccc(C2C3=C(CCCC3=O)OC3=C2C(=O)CCC3)c1	64 (≈ 208 µM)	> 128	> 128	> 128	64 (≈ 208 µM)	–
O=C1CCCC2=C1C(c1ccc([N+](=O)[O-])cc1[N+](=O)[O-])C1=C(CCCC1=O)O2	64 (≈ 167 µM)	> 128	> 128	> 128	64 (≈ 167 µM)	–
CC1(C)CC(=O)C2=C(C1)OC1=C(C(=O)CC(C)(C)C1)C2c1cccc(Cl)c1	64 (≈ 166 µM)	> 128	> 128	> 128	64 (≈ 166 µM)	–
CC1(C)CC(=O)C2=C(C1)OC1=C(C(=O)CC(C)(C)C1)C2c1cccc([N+](=O)[O-])c1	64 (≈ 162 µM)	> 128	> 128	> 128	64 (≈ 162 µM)	–
N#CC1=C(N)Oc2c(c(=O)oc3ccccc23)C1c1ccc(O)cc1 (stereo not given)	> 64	–	–	–	–	–
CC1(C)CC(=O)C2=C(C1)OC1=C(C(=O)CC(C)(C)C1)C2c1ccccc1	8 (≈ 22.8 µM)	> 128	> 128	> 128	8 (≈ 22.8 µM)	Activity [3]: Active; MIC [4]: 0.25 µg/mL; Activity (A549): >75%; MIC [5]: 0.078 µg/mL; Activity [6]: 2 log10CFU; Activity [7]: inactive; MBC [8]: 8 µg/mL (≈ 22.8 µM); MIC [9]: 0.312 µg/mL; MIC [10]: 0.078 µg/mL; Activity [11]: >75%; MIC [12]: 8 µg/mL (≈ 22.8 µM); Activity [13]: Active; Activity [14]: 3 log10CFU; MIC [15]: 0.009 µg/mL; MIC [16]: 0.009 µg/mL; MIC [17]: 8 µg/mL (≈ 22.8 µM); Activity [18]: Active; Activity [19]: 1 log10CFU; Activity (HEK293): > 75%; Activity [20]: Active
O=C1CCCC2=C1C(c1ccc(Br)cc1)C1=C(CCCC1=O)O2	64 (≈ 171 µM)	> 128	> 128	> 128	64 (≈ 171 µM)	–
COc1ccc(OC)c(C2C3=C(CCCC3=O)OC3=C2C(=O)CCC3)c1	64 (≈ 181 µM)	> 128	> 128	> 128	64 (≈ 181 µM)	–
O=C1CCCC2=C1C(c1ccc([N+](=O)[O-])cc1)C1=C(CCCC1=O)O2	64 (≈ 189 µM)	> 128	> 128	> 128	64 (≈ 189 µM)	–
COc1ccccc1C1C2=C(CCCC2=O)OC2=C1C(=O)CCC2	64 (≈ 197 µM)	> 128	> 128	> 128	64 (≈ 197 µM)	–
CC1(C)CC(=O)C2=C(C1)OC1=C(C(=O)CC(C)(C)C1)C2c1cccc(Br)c1	64 (≈ 149 µM)	> 128	> 128	> 128	64 (≈ 149 µM)	–
O=C1CCCC2=C1C(c1cccc(F)c1)C1=C(CCCC1=O)O2	64 (≈ 205 µM)	> 128	> 128	> 128	64 (≈ 205 µM)	–
CC1(C)CC(=O)C2=C(C1)OC1=C(C(=O)CC(C)(C)C1)C2c1ccc(C#N)cc1	64 (≈ 170 µM)	> 128	> 128	> 128	64 (≈ 170 µM)	–
COc1cccc(C2C3=C(CCCC3=O)OC3=C2C(=O)CCC3)c1	8 (≈ 24.7 µM)	> 128	> 128	> 128	8 (≈ 24.7 µM)	Activity [21]: >2 log10CFU; MIC [4]: 0.25 µg/mL; Activity (A549): >75%; Activity [22]: Dose-Dependent Effect; MIC [5]: 0.25 µg/mL; MBC [8]: 8 µg/mL (≈ 24.7 µM); MIC [9]: 0.312 µg/mL; MIC [10]: 0.078 µg/mL; Activity [11]: >75%; MIC [12]: 8 µg/mL (≈ 24.7 µM); MIC [15]: 0.009 µg/mL; MIC [16]: 0.5 µg/mL; Activity [23]: 5 log10CFU; MIC [17]: 8 µg/mL (≈ 24.7 µM); Activity [24]: 2 log10CFU; Activity [18]: Active; Activity (HEK293): > 75%
